{"source": "patent US5393743A", "about": "“Erythromycin derivatives” (Abbott Laboratories, priority 1993, dated 1995)", "key": {"[1]": {"tested_on": "Pseudomonas aeruginosa K799/61", "experiment": "In vitro antibacterial activity, agar dilution MIC", "type": "cell-based", "conditions": "BHI agar, 35°-37° C., 20 to 24 hours"}, "[2]": {"tested_on": "Micrococcus luteus ATCC 9341", "experiment": "microbe, parasite or virus in culture", "conditions": "Micrococcus luteus ATCC 9341; BHI agar, 35°-37° C., 20 to 24 hours", "experimental": "(§1) Representative compounds of the present invention were assayed in vitro for antibacterial activity as follows: Twelve petri dishes containing successive aqueous dilutions of the test compound mixed with 10 mL of sterilized Brain Heart Infusion (BHI) agar (Difco 0418-01-5) were prepared. Each plate was inoculated with 1:100 (or 1:10 for slow-growing strains, such as Micrococcus and Streptococcus) dilutions of up to 32 different microorganisms, using a Steers replicator block. The inoculated plates were incubated 35°-37° C. for 20 to 24 hours. In addition, a control plate, using BHI agar containing no test compound, was prepared and incubated at the beginning and end of each test.\n(§2) An additional plate containing a compound having known susceptibility patterns for the organisms being tested and belonging to the same antibiotic class as the test compound was also prepared and incubated as a further control, as well as to provide test-to-test comparability. Erythromycin A was used for this purpose.\n(§3) After incubation, each disk was read. The minimum inhibitory concentration (MIC) was defined as the lowest concentration of drug yielding no growth, a slight haze, or sparsely isolated colonies on the inoculum spot as compared to the growth control."}, "[3]": {"tested_on": "Escherichia coli SS", "experiment": "microbe, parasite or virus in culture", "conditions": "Escherichia coli SS; BHI agar, 35°-37° C., 20 to 24 hours", "experimental": "as §1, §2, §3"}, "[4]": {"tested_on": "Staphylococcus aureus ATCC 6538P", "experiment": "In vitro antibacterial activity, agar dilution MIC", "type": "cell-based", "conditions": "Staphylococcus aureus ATCC 6538P; BHI agar, 35°-37° C., 20 to 24 hours", "experimental": "as §1, §2, §3"}, "[5]": {"tested_on": "Pseudomonas aeruginosa 5263", "experiment": "In vitro antibacterial activity, agar dilution MIC", "type": "cell-based", "conditions": "Pseudomonas aeruginosa 5263; BHI agar, 35°-37° C., 20 to 24 hours", "experimental": "as §1, §2, §3"}, "[6]": {"tested_on": "Staphylococcus aureus NCTC 10649", "experiment": "In vitro antibacterial activity, agar dilution MIC", "type": "cell-based", "conditions": "Staphylococcus aureus NCTC 10649; BHI agar, 35°-37° C., 20 to 24 hours", "experimental": "as §1, §2, §3"}, "[7]": {"tested_on": "Micrococcus luteus 4698", "experiment": "In vitro antibacterial activity, agar dilution MIC", "type": "cell-based", "conditions": "Micrococcus luteus 4698; BHI agar, 35°-37° C., 20 to 24 hours", "experimental": "as §1, §2, §3"}, "[8]": {"tested_on": "Enterococcus faecium ATCC 8043", "experiment": "In vitro antibacterial activity, agar dilution MIC", "type": "cell-based", "conditions": "Enterococcus faecium ATCC 8043; BHI agar, 35°-37° C., 20 to 24 hours", "experimental": "as §1, §2, §3"}, "[9]": {"tested_on": "Streptococcus agalactiae 508", "experiment": "In vitro antibacterial activity, agar dilution MIC", "type": "cell-based", "conditions": "Streptococcus agalactiae 508; BHI agar, 35°-37° C., 20 to 24 hours", "experimental": "as §1, §2, §3"}, "[10]": {"tested_on": "Acinetobacter calcoaceticus CMX 669", "experiment": "In vitro antibacterial activity, agar dilution MIC", "type": "cell-based", "conditions": "Acinetobacter calcoaceticus CMX 669; BHI agar, 35°-37° C., 20 to 24 hours", "experimental": "as §1, §2, §3"}, "[11]": {"tested_on": "Staphylococcus aureus A5278", "experiment": "In vitro antibacterial activity, agar dilution MIC", "type": "cell-based", "conditions": "Staphylococcus aureus A5278; BHI agar, 35°-37° C., 20 to 24 hours", "experimental": "as §1, §2, §3"}, "[12]": {"tested_on": "Enterobacter aerogenes ATCC 13048", "experiment": "In vitro antibacterial activity, agar dilution MIC", "type": "cell-based", "conditions": "Enterobacter aerogenes ATCC 13048; BHI agar, 35°-37° C., 20 to 24 hours", "experimental": "as §1, §2, §3"}, "[13]": {"tested_on": "Escherichia coli H560", "experiment": "In vitro antibacterial activity, agar dilution MIC", "type": "cell-based", "conditions": "Escherichia coli H560; BHI agar, 35°-37° C., 20 to 24 hours", "experimental": "as §1, §2, §3"}, "[14]": {"tested_on": "Staphylococcus aureus CMX 642a", "experiment": "In vitro antibacterial activity, agar dilution MIC", "type": "cell-based", "conditions": "Staphylococcus aureus CMX 642a; BHI agar, 35°-37° C., 20 to 24 hours", "experimental": "as §1, §2, §3"}, "[15]": {"tested_on": "Pseudomonas aeruginosa A5007", "experiment": "In vitro antibacterial activity, agar dilution MIC", "type": "cell-based", "conditions": "Pseudomonas aeruginosa A5007; BHI agar, 35°-37° C., 20 to 24 hours", "experimental": "as §1, §2, §3"}, "[16]": {"tested_on": "Pseudomonas aeruginosa 2862", "experiment": "In vitro antibacterial activity, agar dilution MIC", "type": "cell-based", "conditions": "Pseudomonas aeruginosa 2862; BHI agar, 35°-37° C., 20 to 24 hours", "experimental": "as §1, §2, §3"}, "[17]": {"tested_on": "Staphylococcus epidermidis 3519", "experiment": "In vitro antibacterial activity, agar dilution MIC", "type": "cell-based", "conditions": "Staphylococcus epidermidis 3519; BHI agar, 35°-37° C., 20 to 24 hours", "experimental": "as §1, §2, §3"}, "[18]": {"tested_on": "Klebsiella pneumoniae ATCC 8045", "experiment": "In vitro antibacterial activity, agar dilution MIC", "type": "cell-based", "conditions": "Klebsiella pneumoniae ATCC 8045; BHI agar, 35°-37° C., 20 to 24 hours", "experimental": "as §1, §2, §3"}, "[19]": {"tested_on": "Staphylococcus aureus A5177", "experiment": "In vitro antibacterial activity, agar dilution MIC", "type": "cell-based", "conditions": "Staphylococcus aureus A5177; BHI agar, 35°-37° C., 20 to 24 hours", "experimental": "as §1, §2, §3"}, "[20]": {"tested_on": "Streptococcus pyogenes 2548 induc", "experiment": "In vitro antibacterial activity, agar dilution MIC", "type": "cell-based", "conditions": "Streptococcus pyogenes 2548 induc; BHI agar, 35°-37° C., 20 to 24 hours", "experimental": "as §1, §2, §3"}, "[21]": {"tested_on": "Streptococcus pyogenes 930 const", "experiment": "In vitro antibacterial activity, agar dilution MIC", "type": "cell-based", "conditions": "Streptococcus pyogenes 930 const; BHI agar, 35°-37° C., 20 to 24 hours", "experimental": "as §1, §2, §3"}, "[22]": {"tested_on": "Pseudomonas aeruginosa BMH10", "experiment": "In vitro antibacterial activity, agar dilution MIC", "type": "cell-based", "conditions": "Pseudomonas aeruginosa BMH10; BHI agar, 35°-37° C., 20 to 24 hours", "experimental": "as §1, §2, §3"}, "[23]": {"tested_on": "Providencia stuartii CMX 640", "experiment": "In vitro antibacterial activity, agar dilution MIC", "type": "cell-based", "conditions": "Providencia stuartii CMX 640; BHI agar, 35°-37° C., 20 to 24 hours", "experimental": "as §1, §2, §3"}, "[24]": {"tested_on": "Streptococcus pyogenes EES61", "experiment": "In vitro antibacterial activity, agar dilution MIC", "type": "cell-based", "conditions": "Streptococcus pyogenes EES61; BHI agar, 35°-37° C., 20 to 24 hours", "experimental": "as §1, §2, §3"}, "[25]": {"tested_on": "Escherichia coli Juhl", "experiment": "In vitro antibacterial activity, agar dilution MIC", "type": "cell-based", "conditions": "Escherichia coli Juhl; BHI agar, 35°-37° C., 20 to 24 hours", "experimental": "as §1, §2, §3"}, "[26]": {"tested_on": "Staphylococcus aureus 1775 Cipro R", "experiment": "In vitro antibacterial activity, agar dilution MIC", "type": "cell-based", "conditions": "Staphylococcus aureus 1775 Cipro R; BHI agar, 35°-37° C., 20 to 24 hours", "experimental": "as §1, §2, §3"}, "[27]": {"tested_on": "Streptococcus bovis A5169", "experiment": "In vitro antibacterial activity, agar dilution MIC", "type": "cell-based", "conditions": "Streptococcus bovis A5169; BHI agar, 35°-37° C., 20 to 24 hours", "experimental": "as §1, §2, §3"}, "[28]": {"tested_on": "Escherichia coli DC-2", "experiment": "In vitro antibacterial activity, agar dilution MIC", "type": "cell-based", "conditions": "Escherichia coli DC-2; BHI agar, 35°-37° C., 20 to 24 hours", "experimental": "as §1, §2, §3"}, "[29]": {"tested_on": "Escherichia coli KNK 437", "experiment": "In vitro antibacterial activity, agar dilution MIC", "type": "cell-based", "conditions": "Escherichia coli KNK 437; BHI agar, 35°-37° C., 20 to 24 hours", "experimental": "as §1, §2, §3"}, "[30]": {"tested_on": "Pseudomonas aeruginosa K799/WT", "experiment": "In vitro antibacterial activity, agar dilution MIC", "type": "cell-based", "conditions": "Pseudomonas aeruginosa K799/WT; BHI agar, 35°-37° C., 20 to 24 hours", "experimental": "as §1, §2, §3"}, "[31]": {"tested_on": "Pseudomonas cepacia 2961", "experiment": "In vitro antibacterial activity, agar dilution MIC", "type": "cell-based", "conditions": "Pseudomonas cepacia 2961; BHI agar, 35°-37° C., 20 to 24 hours", "experimental": "as §1, §2, §3"}, "[32]": {"tested_on": "Staphylococcus aureus CMX 553", "experiment": "In vitro antibacterial activity, agar dilution MIC", "type": "cell-based", "conditions": "Staphylococcus aureus CMX 553; BHI agar, 35°-37° C., 20 to 24 hours", "experimental": "as §1, §2, §3"}}}
{"substance": "(3\"S)-11-O,12-O-carbonyl-3\"-fluoro-3\"-desmethoxy-4\"-O-methylerythromycin A [Example 15]", "values": [{"measurement": "MIC", "setting": "[1]", "result": 3.1, "unit": "µg/mL"}, {"measurement": "MIC", "setting": "[2]", "result": 0.01, "unit": "µg/mL"}, {"measurement": "MIC", "setting": "[3]", "result": 0.2, "unit": "µg/mL"}, {"measurement": "MIC", "setting": "[4]", "result": 0.39, "unit": "µg/mL"}, {"measurement": "MIC", "setting": "[5]", "result": "> 100", "unit": "µg/mL"}, {"measurement": "MIC", "setting": "[6]", "result": 0.39, "unit": "µg/mL"}, {"measurement": "MIC", "setting": "[7]", "result": 0.1, "unit": "µg/mL"}, {"measurement": "MIC", "setting": "[8]", "result": 0.05, "unit": "µg/mL"}, {"measurement": "MIC", "setting": "[9]", "result": 0.05, "unit": "µg/mL"}, {"measurement": "MIC", "setting": "[10]", "result": 100, "unit": "µg/mL"}, {"measurement": "MIC", "setting": "[11]", "result": "> 100", "unit": "µg/mL"}, {"measurement": "MIC", "setting": "[12]", "result": "> 100", "unit": "µg/mL"}, {"measurement": "MIC", "setting": "[13]", "result": 50, "unit": "µg/mL"}, {"measurement": "MIC", "setting": "[14]", "result": 0.39, "unit": "µg/mL"}, {"measurement": "MIC", "setting": "[15]", "result": "> 100", "unit": "µg/mL"}, {"measurement": "MIC", "setting": "[16]", "result": "> 100", "unit": "µg/mL"}, {"measurement": "MIC", "setting": "[17]", "result": 0.39, "unit": "µg/mL"}, {"measurement": "MIC", "setting": "[18]", "result": 100, "unit": "µg/mL"}, {"measurement": "MIC", "setting": "[19]", "result": 6.2, "unit": "µg/mL"}, {"measurement": "MIC", "setting": "[20]", "result": 0.39, "unit": "µg/mL"}, {"measurement": "MIC", "setting": "[21]", "result": "> 100", "unit": "µg/mL"}, {"measurement": "MIC", "setting": "[22]", "result": "> 100", "unit": "µg/mL"}, {"measurement": "MIC", "setting": "[23]", "result": "> 100", "unit": "µg/mL"}, {"measurement": "MIC", "setting": "[24]", "result": 0.05, "unit": "µg/mL"}, {"measurement": "MIC", "setting": "[25]", "result": 100, "unit": "µg/mL"}, {"measurement": "MIC", "setting": "[26]", "result": "> 100", "unit": "µg/mL"}, {"measurement": "MIC", "setting": "[27]", "result": 0.01, "unit": "µg/mL"}, {"measurement": "MIC", "setting": "[28]", "result": 100, "unit": "µg/mL"}, {"measurement": "MIC", "setting": "[29]", "result": 100, "unit": "µg/mL"}, {"measurement": "MIC", "setting": "[30]", "result": 100, "unit": "µg/mL"}, {"measurement": "MIC", "setting": "[31]", "result": 25, "unit": "µg/mL"}, {"measurement": "MIC", "setting": "[32]", "result": 0.39, "unit": "µg/mL"}]}
